Experimental data reported in US20260285872A1, “COMPOUNDS AND METHODS FOR DEGRADING GSPT1” (priority 2023, published 2026).

system: NCI-H1155 cells; test: NSCLC cell viability, CellTiter-Glo, NCI-H1155 cells; format: cell-based; settings: Homo sapiens, NCI-H1155, 72 h, read-out: Cell viability classification (NCI-H1155)

Structure (SMILES)	IC50 [nM]
O=C1CCC(N2Cc3cc(C(=O)N4Cc5c(F)ccc(OC(F)(F)F)c5C4)ccc3C2=O)C(=O)N1 (stereo not shown) [Example 185, 3-(5-(4-fluoro-7-(trifluoromethoxy)isoindoline-2-carbonyl)-1-oxoisoindolin-2-yl)piperidine-2,6-dione]	100 to 1000

same assay, conditions: Homo sapiens; NCI-H1155 cells, CellTiter-Glo, 72 hours of treatment; read-out: Cell viability classification (NCI-H1155)

IC50 [nM]	Structure (SMILES)
100 to 1000	O=C1CCC(N2Cc3cc(C(=O)N4CC5(CCC(F)(F)CC5)C4)ccc3C2=O)C(=O)N1 (stereo not shown) [Example 157, 3-(5-(7,7-difluoro-2-azaspiro[3.5]nonane-2-carbonyl)-1-oxoisoindolin-2-yl)piperidine-2,6-dione]
> 1000	C[C@@H]1c2c(F)cccc2CN1C(=O)c1ccc2nc(C3CCC(=O)NC3=O)oc2c1 (stereo partly drawn) [Example 159, 3-(6-((R)-7-fluoro-1-methylisoindoline-2-carbonyl)benzo[d]oxazol-2-yl)piperidine-2,6-dione]
100 to 1000	C[C@H]1c2c(F)cccc2CN1C(=O)c1ccc2nc(C3CCC(=O)NC3=O)oc2c1 (stereo partly drawn) [Example 160, 3-(6-((S)-7-fluoro-1-methylisoindoline-2-carbonyl)benzo[d]oxazol-2-yl)piperidine-2,6-dione]
> 1000	COc1cccc2c1CN(C(=O)c1ccc3nc(C4CCC(=O)NC4=O)oc3c1)C2 (stereo not shown) [Example 162, 3-(6-(4-methoxyisoindoline-2-carbonyl)benzo[d]oxazol-2-yl)piperidine-2,6-dione]
100 to 1000	O=C1CCC(N2Cc3cc(C(=O)N4CC5(CCC(F)(F)C5)C4)ccc3C2=O)C(=O)N1 (stereo not shown) [Example 163, 3-(5-(6,6-difluoro-2-azaspiro[3.4]octane-2-carbonyl)-1-oxoisoindolin-2-yl)piperidine-2,6-dione]
100 to 1000	O=C1CCC(N2Cc3cc(C(=O)N4CC(F)(c5ccc(F)cc5)C4)ccc3C2=O)C(=O)N1 (stereo not shown) [Example 170, 3-(5-(3-fluoro-3-(4-fluorophenyl)azetidine-1-carbonyl)-1-oxoisoindolin-2-yl)piperidine-2,6-dione]
100 to 1000	O=C1CCC(c2nc3ccc(C(=O)N4CCc5cc(Cl)ccc5C4)cc3o2)C(=O)N1 (stereo not shown) [Example 171, 3-(6-(6-chloro-1,2,3,4-tetrahydroisoquinoline-2-carbonyl)benzo[d]oxazol-2-yl)piperidine-2,6-dione]
10 to 100	O=C1CCC(N2Cc3cc(C(=O)N4Cc5ccc(Cl)c(F)c5C4)ccc3C2=O)C(=O)N1 (stereo not shown) [Example 172, 3-(5-(5-chloro-4-fluoroisoindoline-2-carbonyl)-1-oxoisoindolin-2-yl)piperidine-2,6-dione]
100 to 1000	N#Cc1cccc2c1CN(C(=O)c1ccc3nc(C4CCC(=O)NC4=O)oc3c1)C2 (stereo not shown) [Example 173, 2-(2-(2,6-dioxopiperidin-3-yl)benzo[d]oxazole-6-carbonyl)isoindoline-4-carbonitrile]
100 to 1000	O=C1CCC(c2nc3ccc(C(=O)N4CCc5c(F)cc(F)cc54)cc3o2)C(=O)N1 (stereo not shown) [Example 175, 3-(6-(4,6-difluoroindoline-1-carbonyl)benzo[d]oxazol-2-yl)piperidine-2,6-dione]
100 to 1000	O=C1CCC(c2nc3ccc(C(=O)N4Cc5c(F)ccc(F)c5C4)cc3o2)C(=O)N1 (stereo not shown) [Example 177, 3-(6-(4,7-difluoroisoindoline-2-carbonyl)benzo[d]oxazol-2-yl)piperidine-2,6-dione]
100 to 1000	O=C1CCC(c2nc3ccc(C(=O)N4CCc5cccc(Cl)c5C4)cc3o2)C(=O)N1 (stereo not shown) [Example 179, 3-(6-(8-chloro-1,2,3,4-tetrahydroisoquinoline-2-carbonyl)benzo[d]oxazol-2-yl)piperidine-2,6-dione]
> 1000	O=C1CCC(c2nc3ccc(C(=O)N4CCc5ccc(Cl)cc5C4)cc3o2)C(=O)N1 (stereo not shown) [Example 180, 3-(6-(7-chloro-1,2,3,4-tetrahydroisoquinoline-2-carbonyl)benzo[d]oxazol-2-yl)piperidine-2,6-dione]
> 1000	O=C1CCC(c2nc3ccc(C(=O)N4CCc5c(Cl)cccc5C4)cc3o2)C(=O)N1 (stereo not shown) [Example 181, 3-(6-(5-chloro-1,2,3,4-tetrahydroisoquinoline-2-carbonyl)benzo[d]oxazol-2-yl)piperidine-2,6-dione]
> 1000	O=C1CCC(N2Cc3cc(C(=O)N4CC5(CCOCC5)C4)ccc3C2=O)C(=O)N1 (stereo not shown) [Example 186, 3-(1-oxo-5-(7-oxa-2-azaspiro[3.5]nonane-2-carbonyl)isoindolin-2-yl)piperidine-2,6-dione]

Continued, compound first:

Structure (SMILES)	IC50 [nM]
O=C1CCC(N2Cc3cc(C(=O)N4CC5(CC5)c5ccc(F)cc54)ccc3C2=O)C(=O)N1 (stereo not shown) [Example 105, 3-(5-(6′-fluorospiro[cyclopropane-1,3′-indoline]-1′-carbonyl)-1-oxoisoindolin-2-yl)piperidine-2,6-dione]	< 10
C[C@H]1CN(C(=O)c2ccc3c(c2)CN(C2CCC(=O)NC2=O)C3=O)c2cc(F)ccc21 (stereo partly drawn) [Example 132, 3-(5-((R)-6-fluoro-3-methylindoline-1-carbonyl)-1-oxoisoindolin-2-yl)piperidine-2,6-dione]	< 10
Cc1c(N2CCC(=O)NC2=O)ccc2ccc(C(=O)N3CCc4ccc(F)cc43)cc12 [Example 134, 1-(7-(6-fluoroindoline-1-carbonyl)-1-methylnaphthalen-2-yl)dihydropyrimidine-2,4(1H,3H)-dione]	10 to 100
C[C@@H]1c2c(F)cccc2CN1C(=O)c1ccc2c(c1)CN(C1CCC(=O)NC1=O)C2=O (stereo partly drawn) [Example 139, 3-(5-((R)-7-fluoro-1-methylisoindoline-2-carbonyl)-1-oxoisoindolin-2-yl)piperidine-2,6-dione]	10 to 100
C[C@H]1c2c(F)cccc2CN1C(=O)c1ccc2c(c1)CN(C1CCC(=O)NC1=O)C2=O (stereo partly drawn) [Example 140, 3-(5-((S)-7-fluoro-1-methylisoindoline-2-carbonyl)-1-oxoisoindolin-2-yl)piperidine-2,6-dione]	> 1000
C[C@H]1c2cccc(F)c2CN1C(=O)c1ccc2c(c1)CN(C1CCC(=O)NC1=O)C2=O (stereo partly drawn) [Example 141, 3-(5-((S)-4-fluoro-1-methylisoindoline-2-carbonyl)-1-oxoisoindolin-2-yl)piperidine-2,6-dione]	100 to 1000
C[C@@H]1c2cccc(F)c2CN1C(=O)c1ccc2c(c1)CN(C1CCC(=O)NC1=O)C2=O (stereo partly drawn) [Example 142, 3-(5-((R)-4-fluoro-1-methylisoindoline-2-carbonyl)-1-oxoisoindolin-2-yl)piperidine-2,6-dione]	> 1000
O=C1CCN(c2ccc3cc(COC(=O)Nc4cc(OC(F)(F)F)ccc4F)ccc3c2)C(=O)N1 [Example 143, (6-(2,4-dioxotetrahydropyrimidin-1(2H)-yl)naphthalen-2-yl)methyl(2-fluoro-5-(trifluoromethoxy)phenyl)carbamate]	100 to 1000
O=C1CCC(N2Cc3cc(C(=O)N4Cc5ccc(F)c(Cl)c5C4)ccc3C2=O)C(=O)N1 (stereo not shown) [Example 144, 3-(5-(4-chloro-5-fluoroisoindoline-2-carbonyl)-1-oxoisoindolin-2-yl)piperidine-2,6-dione]	10 to 100
O=C1CCC(c2nc3ccc(C(=O)N4CCc5ccccc5C4)cc3o2)C(=O)N1 (stereo not shown) [Example 146, 3-(6-(1,2,3,4-tetrahydroisoquinoline-2-carbonyl)benzo[d]oxazol-2-yl)piperidine-2,6-dione]	100 to 1000
O=C1CCC(N2Cc3cc(C(=O)N4Cc5cc(Cl)cc(F)c5C4)ccc3C2=O)C(=O)N1 (stereo not shown) [Example 148, 3-(5-(6-chloro-4-fluoroisoindoline-2-carbonyl)-1-oxoisoindolin-2-yl)piperidine-2,6-dione]	10 to 100
Cc1ccc2c(c1F)CN(C(=O)c1ccc3c(c1)CN(C1CCC(=O)NC1=O)C3=O)C2 (stereo not shown) [Example 149, 3-(5-(4-fluoro-5-methylisoindoline-2-carbonyl)-1-oxoisoindolin-2-yl)piperidine-2,6-dione]	10 to 100
N#Cc1ccc2c(c1F)CN(C(=O)c1ccc3c(c1)CN(C1CCC(=O)NC1=O)C3=O)C2 (stereo not shown) [Example 150, 2-(2-(2,6-dioxopiperidin-3-yl)-1-oxoisoindoline-5-carbonyl)-4-fluoroisoindoline-5-carbonitrile]	100 to 1000
O=C1CCC(N2Cc3cc(C(=O)N4Cc5cccc(OC(F)(F)F)c5C4)ccc3C2=O)C(=O)N1 (stereo not shown) [Example 151, 3-(1-oxo-5-(4-(trifluoromethoxy)isoindoline-2-carbonyl)isoindolin-2-yl)piperidine-2,6-dione]	10 to 100
O=C1CCC(N2Cc3cc(C(=O)N4Cc5cc(F)cc(Cl)c5C4)ccc3C2=O)C(=O)N1 (stereo not shown) [Example 152, 3-(5-(4-chloro-6-fluoroisoindoline-2-carbonyl)-1-oxoisoindolin-2-yl)piperidine-2,6-dione]	10 to 100
O=C1CCC(c2nc3ccc(C(=O)N4Cc5cccc(OC(F)(F)F)c5C4)cc3o2)C(=O)N1 (stereo not shown) [Example 153, 3-(6-(4-(trifluoromethoxy)isoindoline-2-carbonyl)benzo[d]oxazol-2-yl)piperidine-2,6-dione]	> 1000
O=C1CCC(N2Cc3cc(C(=O)N4CC5(CNC5)c5ccc(F)cc54)ccc3C2=O)C(=O)N1 (stereo not shown) [Example 154, 3-(5-(6′-fluorospiro[azetidine-3,3′-indoline]-1′-carbonyl)-1-oxoisoindolin-2-yl)piperidine-2,6-dione]	> 1000
Cc1cc(F)c2c(c1)CN(C(=O)c1ccc3c(c1)CN(C1CCC(=O)NC1=O)C3=O)C2 (stereo not shown) [Example 155, 3-(5-(4-fluoro-6-methylisoindoline-2-carbonyl)-1-oxoisoindolin-2-yl)piperidine-2,6-dione]	< 10
N#Cc1cc(F)c2c(c1)CN(C(=O)c1ccc3c(c1)CN(C1CCC(=O)NC1=O)C3=O)C2 (stereo not shown) [Example 156, 2-(2-(2,6-dioxopiperidin-3-yl)-1-oxoisoindoline-5-carbonyl)-7-fluoroisoindoline-5-carbonitrile]	10 to 100
O=C1CCC(N2Cc3cc(C(=O)N4CC5(C4)CC(F)(c4ccc(F)cc4)C5)ccc3C2=O)C(=O)N1 (stereo not shown) [Example 168, 3-(5-(6-fluoro-6-(4-fluorophenyl)-2-azaspiro[3.3]heptane-2-carbonyl)-1-oxoisoindolin-2-yl)piperidine-2,6-dione]	100 to 1000
O=C1CCC(N2Cc3cc(C(=O)N4CC5(CC(C(F)(F)F)C5)C4)c(F)cc3C2=O)C(=O)N1 (stereo not shown) [Example 183, 3-(6-fluoro-1-oxo-5-(6-(trifluoromethyl)-2-azaspiro[3.3]heptane-2-carbonyl)isoindolin-2-yl)piperidine-2,6-dione]	10 to 100
